In patent US9420817B2, “Agent for amelioration of dysphagia, and pharmaceutical or food composition comprising the same” (AJINOMOTO CO., INC., priority 2006, dated 2016):

System: cough receptor
Assay: Cough receptor sensitivity test (nebulizer inhalation, C5)
Type: in vivo, human
Settings: seventeen healthy adults, inhaled by nebulizer for 15 seconds at intervals of one minute, 0.49 to 1,000 μM
Protocol: In the following Examples, 1 mL of an emulsifier (Tween 80) and 1 mL of 99.7% ethanol were added to 70 μL of the resultant extracted oil immediately before use, and the mixture was diluted with physiological saline (Otsuka) in Example 1 or with distilled water in Example 2, to thereby prepare solutions containing different concentrations of capsinoid. In the same way as above, 1 mL of an emulsifier (Tween 80) and 1 mL of 99.7% ethanol were added to 30.5 mg of capsaicin (manufactured by Sigma-Aldrich) immediately before use, and the mixture was diluted with physiological saline (Otsuka) in Example 1 or with distilled water in Example 2, to thereby prepare solutions containing different concentrations of capsaicin.
Seventeen healthy adults (mean age 36±2.6) inhaled the capsaicin solution prepared in Production Example (0.49 to 1,000 μM) by a nebulizer for 15 seconds at intervals of one minute, and the concentrations for causing five or more coughs by one aspiration (C5) were determined.
At a later date, the same test was performed for the same test subjects using the capsinoid solutions (0.49 to 1,000 μM) to determine C5, followed by comparison between C5 of the capsaicin solution and C5 of the capsinoid solution.

In the case of `COc1cc(CNC(=O)CCCC/C=C/C(C)C)ccc1O` [capsaicin solution, capsaicin], the “C5 (concentration for causing five or more coughs by one aspiration)” value is reported as 2.02 µM.
